From paper PMC7717600, “Novel [(N-alkyl-3-indolylmethylene)hydrazono]oxindoles arrest cell cycle and induce cell apoptosis by inhibiting CDK2 and Bcl-2: synthesis, biological evaluation and in silico studies” (Journal of Enzyme Inhibition and Medicinal Chemistry, 2020)
Where two headings read alike, the source gives them in different places.

Tests used:
EKVX = experiment: cells; settings: Homo sapiens
NCI/ADR-RES = experiment: cells; settings: Homo sapiens
MOLT-4 = experiment: cells; settings: Homo sapiens
HOP-62 = experiment: cells; settings: Homo sapiens
HL-60(TB) = experiment: cells; settings: Homo sapiens
[1] = test system: panel of 59 human cancer cell lines; experiment: NCI screening, panel and subpanel summaries; settings: for GI50: Homo sapiens
Description: GI50 values reflect the level for growth inhibitory effect, whereas TGI represents cytostatic impact. In addition, LC50 parameter is considered to be the cytotoxicity parameter for the examined hybrid.
Furthermore, dividing the full-panel MG-MID (µM) for the examined derivative by its individual subpanel MG-MID (µM) provides an index which is regarded as a measure for its selectivity.
The NCI-USA anticancer screening was carried out following the NCI, Bethesda, Drug Evaluation Branch protocol[22–24], utilising the SRB protein assay[21], as reported earlier[34]^,[35].
NCI-in vitro antitumor activity towards 59 cancer cell lines
The cytotoxicity assays were performed at National Cancer Institute (NCI), Bethesda, USA (against 59 cell lines). The human tumor cell lines of the cancer screening panel were grown in
screening experiment, cells were inoculated into 96 well microtiter plates in 100 µ at plating densities ranging from 5000 to 40,000 cells/well depending on the doubling time of individual
and 100% relative humidity for 24 h prior to addition of experimental drugs. After 24 h, two
plates of each cell line were fixed in situ with trichloroacetic acid (TCA), to represent a
measurement of the cell population for each cell line at the time of drug addition (Tz).
Experimental drugs were solubilized in dimethyl sulfoxide at 400-fold the desired final
maximum test concentration and stored frozen prior to use. At the time of drug addition, an
aliquot of frozen concentrate was thawed and diluted to twice the desired final maximum test
concentration with complete medium containing 50 µg/ml gentamicin. Additional four, 10-fold
or ½ log serial dilutions were made to provide a total of five drug concentrations plus control.
Aliquots of 100 µl of these different drug dilutions were added to the appropriate microtiter wells
already containing 100 µl of medium, resulting in the required final drug concentrations.
Triplicate wells were prepared for each individual dose. Following drug addition, the plates were

NCI-H23 = experiment: cells; settings: Homo sapiens
T-47D = experiment: cells; settings: Homo sapiens, T47D
OVCAR-4 = experiment: cells; settings: Homo sapiens
UACC-62 = experiment: cells; settings: Homo sapiens
SF-295 = experiment: cells; settings: Homo sapiens
BT-549 = experiment: cells; settings: Homo sapiens
SNB-75 = experiment: cells; settings: Homo sapiens
MCF7 = experiment: cells; settings: Homo sapiens
SF-539 = experiment: cells; settings: Homo sapiens
HS 578T = experiment: cells; settings: Homo sapiens
SW-620 = experiment: cells; settings: Homo sapiens
CDK2 = CDK2 (Homo sapiens, UniProt P24941); experiment: CDK2 inhibition assay; format: biochemical; settings: CDK2, mean ± SE of three
Description: and of the test compound in a final volume of 10 µL, all in a reaction buffer (60 mM HEPES-NaOH, pH 7.5, 3 mM MgCl2, 3 mM MnCl2, 3 μM Na-orthovanadate, 1.2 mM DTT, 2.5 μg / 50 μl PEG20.000). The reactions were stopped by adding 5 µL of 3 % aq. H3PO4. Aliquots were spotted onto P-81 phosphocellulose (Whatman), washed 3× with 0.5 % aq. H3PO4 and finally air-dried. Kinase inhibition was quantified using a FLA-7000 digital image analyzer (Fujifilm).

SR = experiment: cells; settings: Homo sapiens
OVCAR-3 = experiment: cells; settings: Homo sapiens
Bcl-2 = Bcl-2 (Homo sapiens, UniProt P10415); experiment: Bcl-2 inhibitory activity; format: biochemical; settings: Bcl-2, mean ± SE of three
Sequence of Bcl-2 (P10415 whole entry): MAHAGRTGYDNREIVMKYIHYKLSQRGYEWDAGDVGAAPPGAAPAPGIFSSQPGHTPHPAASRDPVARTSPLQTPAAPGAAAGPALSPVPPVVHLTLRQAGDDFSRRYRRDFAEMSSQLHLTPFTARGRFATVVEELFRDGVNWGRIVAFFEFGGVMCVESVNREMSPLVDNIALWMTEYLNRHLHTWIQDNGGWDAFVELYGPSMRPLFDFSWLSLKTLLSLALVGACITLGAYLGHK
Description: These assays were carried out as reported earlier[38]^,[39].

SN12C = experiment: cells; settings: Homo sapiens
HCT-116 = experiment: cells; settings: Homo sapiens
DU-145 = experiment: cells; settings: Homo sapiens
SK-OV-3 = experiment: cells; settings: Homo sapiens, SK-OV-3, read-out: LC50
[2] = test system: breast T-47D cancer cells; experiment: Annexin V-FITC/PI apoptosis assay; format: cell-based, human
Excerpt: In an attempt to further investigate whether the antiproliferative activity for conjugate 8a is harmonious with the apoptosis induction within T-47D cells pointed out by the increased cell population in sub-G1 phase in 8a-treated T-47D cells (Figure 3), Annexin V-FITC/PI dual staining analysis was used for the apoptosis assay (Figure 4).
Phosphatidylserine externalisation effect of conjugate 8a over breast T-47D cancer cell line was investigated using Annexin-V-FITC Apoptosis Detection Kit by flow cytometry, as described earlier.
4.2.4. Cell Cycle Analysis
Subsequently, the treated cells
Annexin V-FITC Apoptosis Assay
period of 30 min at 4 °C.
Technologies, Darmstadt, Germany).
μl PEG20.000). […] H3PO4. Aliquots were […]

RXF 393 = experiment: cells; settings: Homo sapiens
A549/ATCC = experiment: cells; settings: Homo sapiens
HCT-15 = experiment: cells; settings: Homo sapiens
[3] = test system: breast T-47D cancer cells; experiment: Cell cycle analysis by DNA flow cytometry; format: cell-based, human; settings: 8a at GI50 concentration (0.41 µM), 24 h
Description: were washed twice with ice-cold phosphate buffered saline (PBS). Subsequently, the treated cells were collected by centrifugation, fixed in ice-cold 70% (v/v) ethanol, washed with PBS, re-suspended with 100 μg/mL RNase, stained with 40 μg/mL PI, and analyzed by flow cytometry using FACS Calibur (Becton Dickinson, BD, Franklin Lakes, NJ, USA). The cell cycle distributions were calculated using CellQuest software 5.1 (Becton Dickinson).

CCCn1cc(C=NN=C2C(=O)Nc3ccc(C)cc32)c2ccccc21 [Compound 8a]
GI50 (EKVX): 2.36 µM
CC50 (EKVX; read-out: LC50): > 100 µM
GI50 (NCI/ADR-RES): 6.39 µM
CC50 (NCI/ADR-RES; read-out: LC50): > 100 µM
GI50 (MOLT-4; MOLT-4, MOLT-4): 0.682 µM
CC50 (MOLT-4; MOLT-4, read-out: LC50): > 100 µM
GI50 (HOP-62; HOP-62): 4.17 µM
CC50 (HOP-62; HOP-62, read-out: LC50): > 100 µM
GI50 (HL-60(TB); HL-60): 1.31 µM
CC50 (HL-60(TB); HL-60, read-out: LC50): > 100 µM
mean GI % ([1]; 10 µM single dose, all cell lines): 59%
Mean Growth Percent ([1]; 1.00E-5 Molar, one dose mean graph): 41.08%
Selectivity index ([1]; Breast Cancer subpanel): 1.00
Selectivity index ([1]; CNS Cancer subpanel): 0.75
Selectivity index ([1]; Colon Cancer subpanel): 1.25
GI50 ([1]; read-out: Full panel MG-MID (GI50), five-dose): 3.1 µM
GI50 ([1]; read-out: GI50 values range, five-dose, across cell lines except UACC-257, TK-10, HS 578 T): 1.17 to 8.41 µM
GI50 ([1]; read-out: MG-MID (GI50), Breast Cancer subpanel): 3.09 µM
GI50 ([1]; read-out: MG-MID (GI50), CNS Cancer subpanel): 4.08 µM
GI50 ([1]; read-out: MG-MID (GI50), Colon Cancer subpanel): 2.47 µM
GI50 ([1]; read-out: MG-MID (GI50), Leukaemia subpanel): 1.33 µM
GI50 ([1]; read-out: MG-MID (GI50), Melanoma subpanel): 3.45 µM
GI50 ([1]; read-out: MG-MID (GI50), NSCL Cancer subpanel): 3.22 µM
GI50 ([1]; read-out: MG-MID (GI50), Ovarian Cancer subpanel): 3.24 µM
GI50 ([1]; read-out: MG-MID (GI50), Prostate Cancer subpanel): 2.85 µM
GI50 ([1]; read-out: MG-MID (GI50), Renal Cancer subpanel): 4.23 µM
GI50 ([1]; read-out: sub-panel GI50 (MG-MID) range, five-dose): 1.33 to 4.23 µM
Selectivity index ([1]; Leukaemia subpanel): 2.33
Selectivity index ([1]; Melanoma subpanel): 0.89
Selectivity index ([1]; NSCL Cancer subpanel): 0.96
Selectivity index ([1]; Ovarian Cancer subpanel): 0.95
Selectivity index ([1]; Prostate Cancer subpanel): 1.08
Selectivity index ([1]; Renal Cancer subpanel): 0.73
Log10GI50 _MID ([1]; five-dose mean graph): -5.59 Molar
Log10LC50 _MID ([1]; five-dose mean graph): -4.12 Molar
Log10TGI _MID ([1]; five-dose mean graph): -4.69 Molar
TGI range ([1]; five-dose, against 22 cancer cell lines): 2.96 to 8.03 µM
TGI interval ([1]; five-dose, remaining cancer cell lines): 10.6 to 96.6 µM
selectivity ratios range ([1]; full-panel MG-MID / subpanel MG-MID): 0.73 to 2.33
GI50 (NCI-H23; NCI-H23): 3.13 µM
CC50 (NCI-H23; NCI-H23, read-out: LC50): > 100 µM
GI50 (T-47D; T-47D): 0.416 µM
CC50 (T-47D; read-out: LC50): > 100 µM
GI50 (OVCAR-4; OVCAR-4, OVCAR-4): 0.935 µM
CC50 (OVCAR-4; OVCAR-4, read-out: LC50): > 100 µM
GI50 (UACC-62; UACC-62): 2.24 µM
CC50 (UACC-62; UACC-62, read-out: LC50): > 100 µM
GI50 (SF-295; SF-295): 8.41 µM
CC50 (SF-295; SF-295, read-out: LC50): > 100 µM
GI50 (BT-549; BT-549): 1.79 µM
CC50 (BT-549; BT-549, read-out: LC50): > 100 µM
GI50 (SNB-75; SNB-75): 2.31 µM
CC50 (SNB-75; SNB-75, read-out: LC50): > 100 µM
GI50 (MCF7; MCF7): 1.54 µM
CC50 (MCF7; MCF7, read-out: LC50): > 100 µM
GI50 (SF-539; SF-539): 2.69 µM
CC50 (SF-539; SF-539, read-out: LC50): > 100 µM
GI50 (HS 578T): 11.3 µM
CC50 (HS 578T; read-out: LC50): > 100 µM
GI50 (SW-620; SW-620): 2.97 µM
CC50 (SW-620; SW-620, read-out: LC50): > 100 µM
IC50 (CDK2): 0.85 ± 0.03 µM
GI50 (SR): 0.521 µM
CC50 (SR; read-out: LC50): > 100 µM
GI50 (OVCAR-3; OVCAR-3): 1.36 µM
CC50 (OVCAR-3; OVCAR-3, read-out: LC50): > 100 µM
IC50 (Bcl-2): 0.46 ± 0.02 µM
GI50 (SN12C): 3.2 µM
CC50 (SN12C; read-out: LC50): > 100 µM
GI50 (HCT-116; HCT-116): 1.75 µM
CC50 (HCT-116; HCT-116, read-out: LC50, HCT-116): 19 µM
GI50 (DU-145; DU-145): 3.88 µM
CC50 (DU-145; DU-145, read-out: LC50): > 100 µM
CC50 (SK-OV-3): > 100 µM
apoptotic cells, early apoptotic phase ([2]; control 0.26%): 4.82%
apoptotic cells, late apoptotic phase ([2]; control 0.47%): 14.62%
increase in total apoptosis ([2]; vs untreated control): about 26 fold
GI50 (RXF 393; RXF 393): 2.17 µM
CC50 (RXF 393; RXF 393, read-out: LC50): > 100 µM
GI50 (A549/ATCC; A549): 7.18 µM
CC50 (A549/ATCC; A549, read-out: LC50): > 100 µM
GI50 (HCT-15; HCT-15): 2.63 µM
CC50 (HCT-15; HCT-15, read-out: LC50): > 100 µM
cell population in sub-G1 phase ([3]; control 1.25%): 17.73%
G2/M phase fraction ([3]; control 19.19%): 34.05%
